According to US8906852B2 (MethylGene Inc., priority 2010, dated 2014):

Target: T1, VEGFR/KDR (Homo sapiens, UniProt P35968)
T1 construct: made in house; host or cells: Sf9 cells (Spodoptera frugiperda), baculovirus
Test: VEGFR/KDR kinase inhibition, DELFIA assay
Assay type: biochemical
Conditions: ATP 0.6 uM (2x Km), enzyme 5 nM
Method: Inhibition of VEGFR/KDR is measured in a DELFIA™ assay (Perkin Elmer). The substrate poly(Glu4, Tyr) is immobilized onto black high-binding polystyrene 96-well plates. The coated plates are washed and stored at 4° C. During the assay, the enzyme is pre-incubated with inhibitor and Mg-ATP on ice in polypropylene 96-well plates for 4 minutes, and then transferred to the coated plates. The subsequent kinase reaction takes place at 30° C. for 10-30 minutes. ATP concentrations in the assay are 0.6 uM for VEGFR/KDR (2× the Km). Enzyme concentration is 5 nM. After incubation, the kinase reactions are quenched with EDTA and the plates are washed. Phosphorylated product is detected by incubation with Europium-labeled anti-phosphotyrosine MoAb. After washing the plates, bound MoAb is detected by time-resolved fluorescence in a Gemini SpectraMax reader (Molecular Devices). Compounds are evaluated over a range of concentrations, and IC50 values (concentration of compounds giving 50% inhibition of enzymatic activity) are determined.

T1 sequence (P35968 806-1356): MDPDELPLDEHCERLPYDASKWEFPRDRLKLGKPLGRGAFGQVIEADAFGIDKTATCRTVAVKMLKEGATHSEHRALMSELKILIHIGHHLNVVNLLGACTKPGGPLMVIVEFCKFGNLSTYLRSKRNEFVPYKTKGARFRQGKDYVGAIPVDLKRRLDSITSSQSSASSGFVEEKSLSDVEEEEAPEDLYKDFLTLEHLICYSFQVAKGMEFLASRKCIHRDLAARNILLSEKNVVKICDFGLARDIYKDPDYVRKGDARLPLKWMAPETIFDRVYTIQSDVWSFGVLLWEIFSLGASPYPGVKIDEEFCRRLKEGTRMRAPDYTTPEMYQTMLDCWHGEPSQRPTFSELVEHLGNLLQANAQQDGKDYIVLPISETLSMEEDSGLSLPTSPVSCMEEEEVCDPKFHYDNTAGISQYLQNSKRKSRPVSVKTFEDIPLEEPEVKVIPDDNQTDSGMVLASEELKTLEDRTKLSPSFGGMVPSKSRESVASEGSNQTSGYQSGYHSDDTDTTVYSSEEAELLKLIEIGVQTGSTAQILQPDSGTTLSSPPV

IC50, < 0.05 µM:
O=C(Nc1ccc(Oc2ccnc3cc(-c4ccc(CN5CCN(CCN6CCOCC6)CC5)cn4)sc23)c(F)c1)NC1CC1 [Compound 54-A, 1-cyclopropyl-3-(3-fluoro-4-(2-(5-((4-(2-morpholinoethyl)piperazin-1-yl)methyl)pyridin-2-yl)thieno[3,2-b]pyridin-7-yloxy)phenyl)urea]
CN1CCCN(Cc2ccc(-c3cc4nccc(Oc5ccc(NC(=O)NC6CC6)cc5F)c4s3)nc2)CC1 [Compound 54-B, 1-cyclopropyl-3-(3-fluoro-4-(2-(5-((4-methyl-1,4-diazepan-1-yl)methyl)pyridin-2-yl)thieno[3,2-b]pyridin-7-yloxy)phenyl)urea]
CN1CCC(CN2CCN(Cc3ccc(-c4cc5nccc(Oc6ccc(NC(=O)NC7CC7)cc6F)c5s4)nc3)CC2)CC1 [Compound 54-D, 1-cyclopropyl-3-(3-fluoro-4-(2-(5-((4-((1-methylpiperidin-4-yl)methyl)piperazin-1-yl)methyl)pyridin-2-yl)thieno[3,2-b]pyridin-7-yloxy)phenyl)urea]
CC(C)N1CCN(Cc2ccc(-c3cc4nccc(Oc5ccc(NC(=O)NC6CC6)cc5F)c4s3)nc2)CC1 [Compound 54-E, 1-cyclopropyl-3-(3-fluoro-4-(2-(5-((4-isopropylpiperazin-1-yl)methyl)pyridin-2-yl)thieno[3,2-b]pyridin-7-yloxy)phenyl)urea]
CS(=O)(=O)N1CCN(Cc2ccc(-c3cc4nccc(Oc5ccc(NC(=O)NC6CC6)cc5F)c4s3)nc2)CC1 [Compound 54-F, 1-cyclopropyl-3-(3-fluoro-4-(2-(5-((4-(methylsulfonyl)piperazin-l-yl)methyl)pyridin-2-yl)thieno[3,2-b]pyridin-7-yloxy)phenyl)urea]
O=C(Nc1ccc(Oc2ccnc3cc(-c4ccc(CN5CCN(CCn6ccnc6)CC5)cn4)sc23)c(F)c1)NC1CC1 [Compound 54-G, 1-(4-(2-(5-((4-(2-(1H-imidazol-1-yl)ethyl)piperazin-l-yl)methyl)pyridin-2-yl)thieno[3,2-b]pyridin-7-yloxy)-3-fIuorophenyl)-3-cyclopropylurea]
COCCN1CCN(Cc2ccc(-c3cc4nccc(Oc5ccc(NC(=O)NC6CC6)cc5F)c4s3)nc2)CC1 [Compound 56]
N#CCCN1CCN(Cc2ccc(-c3cc4nccc(Oc5ccc(NC(=O)NC6CC6)cc5F)c4s3)nc2)CC1 [Compound 57, 1-(4-(2-(5-((4-(2-cyanoethyl)piperazin-1-yl)methyl)pyridin-2-yl)thieno[3,2-b]-pyridin-7-yloxy)-3-fluorophcnyl)-3-cyclopropylurea]
CCOC(=O)C1CCN(Cc2ccc(-c3cc4nccc(Oc5ccc(NC(=O)NC6CC6)cc5F)c4s3)nc2)CC1 [Compound 58, ethyl 1-((6-(7-(4-(3-cyclopropylureido)-2-fluorophenoxy)-thieno[3,2-b]pyridin-2-yl)pyridin-3-yl)methyl)piperidine-4-carboxylate]
CCOC(=O)CC1CCN(Cc2ccc(-c3cc4nccc(Oc5ccc(NC(=O)NC6CC6)cc5F)c4s3)nc2)CC1 [Compound 59, ethyl 2-(1-((6-(7-(4-(3-cyclopropylureido)-2-fluorophenoxy)-thieno[3,2-b]pyridin-2-yl)pyridin-3-yl)methyl)piperidin-4-yl)acelate]
CCOC(=O)CN1CCN(Cc2ccc(-c3cc4nccc(Oc5ccc(NC(=O)NC6CC6)cc5F)c4s3)nc2)CC1 [Compound 60, ethyl 2-(4-((6-(7-(4-(3-cyclopropylureido)-2-fluorophenoxy)-thieno[3,2-b]pyridin-2-yl)pyridin-3-yl)methyl)piperazin-1-yl)acetate]
O=C(O)CN1CCN(Cc2ccc(-c3cc4nccc(Oc5ccc(NC(=O)NC6CC6)cc5F)c4s3)nc2)CC1 [Compound 61, 2-(4-((6-(7-(4-(3-cyclopropylureido)-2-fluorophenoxy)thieno[3,2-b]pyridin-2-yl)pyridin-3-yl)methyl)piperazin-1-yl)acetic acid]
O=C(Nc1ccc(Oc2ccnc3cc(-c4ccc(CN5CCC(C(=O)O)CC5)cn4)sc23)c(F)c1)NC1CC1 [Compound 62, l-((6-(7-(4-(3-cyclopropylureido)-2-fluorophenoxy)thieno[3,2-b]pyridin-2-yl)pyridin-3-yl)methyl)piperidine-4-carboxylic acid]
O=C(O)CC1CCN(Cc2ccc(-c3cc4nccc(Oc5ccc(NC(=O)NC6CC6)cc5F)c4s3)nc2)CC1 [Compound 63, 2-(l-((6-(7-(4-(3-cyclopropylureido)-2-fluorophenoxy)thieno[3,2-b]pyridin-2-yl)pyridin-3-yl)methyl)piperidin-4-yl)acetic acid]
CC(=O)N1CCN(Cc2ccc(-c3cc4nccc(Oc5ccc(NC(=O)NC6CC6)cc5F)c4s3)nc2)CC1 [Compound 66, 1-(4-(2-(5-((4-acetylpiperazin-1-yl)methyl)pyridin-2-yl)thieno[3,2-b]pyridin-7-yloxy)-3-fluorophenyl)-3-cyclopropylurea]
O=C1CN(Cc2ccc(-c3cc4nccc(Oc5ccc(NC(=O)NC6CC6)cc5F)c4s3)nc2)CCN1 [Compound 67, l-cyclopropyl-3-(3-fluoro-4-(2-(5-((3-oxopiperazin-1-yl)methyl)pyridin-2-yl)thieno[3,2-b]-pyridin-7-yloxy)phenyl)urea]
CCOC(=O)CCN1CCN(Cc2ccc(-c3cc4nccc(Oc5ccc(NC(=O)NC6CC6)cc5F)c4s3)nc2)CC1 [Compound 68, ethyl 3-(4-((6-(7-(4-(3-cyclopropyl-ureido)-2-fluorophenoxy)-thieno[3,2-b]-pyridin-2-yl)pyridin-3-yl)methyl)piperazin-1-yl)propanoate]
O=C(O)CCN1CCN(Cc2ccc(-c3cc4nccc(Oc5ccc(NC(=O)NC6CC6)cc5F)c4s3)nc2)CC1 [Compound 70, 3-(4-((6-(7-(4-(3-cyclopropylureido)-2-fluorophenoxy)thieno[3,2-b]pyridin-2-yl)pyridin-3-yl)methyl)piperazin-1-yl)propanoic acid]
O=C(Nc1ccc(Oc2ccnc3cc(-c4ccc(CN5CCNCC5=O)cn4)sc23)c(F)c1)NC1CC1 [Compound 72]
O=C(Nc1ccc(Oc2ccnc3cc(-c4ccc(CN5C[C@@H]6C[C@H]5CN6)cn4)sc23)c(F)c1)NC1CC1 [Compound 73]
CC(C)[C@H](N)C(=O)N1CCN(Cc2ccc(-c3cc4nccc(Oc5ccc(NC(=O)NC6CC6)cc5F)c4s3)nc2)CC1 [Compound 76, (S)-1-(4-(2-(5-((4-(2-amino-3-methylbutanoyl)piperazin-1-yl)methyl)pyridin-2-yl)thieno[3,2-b]pyridin-7-yloxy)-3-fluorophenyl)-3-cyclopropylurea]
NCC(=O)N1CCN(Cc2ccc(-c3cc4nccc(Oc5ccc(NC(=O)NC6CC6)cc5F)c4s3)nc2)CC1 [Compound 77, 1-(4-(2-(5-((4-(2-aminoacetyl)piperazin-1-yl)methyl)pyridin-2-yl)thieno[3,2-b]-pyridin-7-yloxy)-3-fluorophenyl)-3-cyclopropylurea]
CC(C)[C@H](N)C(=O)OCCN1CCN(Cc2ccc(-c3cc4nccc(Oc5ccc(NC(=O)NC6CC6)cc5F)c4s3)nc2)CC1 [Compound 79, (S)-2-(4-((6-(7-(4-(3-cyclopropylureido)-2-fluorophenoxy)thieno[3,2-b]pyridin-2-yl)pyridin-3-yl)methyl)piperazin-1-yl)ethyl 2-amino-3-methylbutanoate]
CNC(=O)CCN1CCN(Cc2ccc(-c3cc4nccc(Oc5ccc(NC(=O)NC6CC6)cc5F)c4s3)nc2)CC1 [Compound 81, 3-(4-((6-(7-(4-(3-cyclopropylureido)-2-fluorophenoxy)thieno[3,2-b]pyridin-2-yl)pyridin-3-yl)methyl)piperazin-1-yl)-N-methylpropanamide]
NC(=O)CCN1CCN(Cc2ccc(-c3cc4nccc(Oc5ccc(NC(=O)NC6CC6)cc5F)c4s3)nc2)CC1 [Compound 82, 3-(4-((6-(7-(4-(3-cyclopropylureido)-2-fIuorophenoxy)-thieno[3,2-b]pyridin-2-yl)pyridin-3-yl)methyl)piperazin-l-yl)propanamide]
O=C(Nc1ccc(Oc2ccnc3cc(-c4ccc(CN5CCN(CC(F)(F)F)CC5)cn4)sc23)c(F)c1)NC1CC1 [Compound 84, 1-cyclopropyl-3-(3-fluoro-4-(2-(5-((4-(2,2,2-trifluoroethyl)piperazin-1-yl)methyl)-pyridin-2-yl)thieno[3,2-b]pyridin-7-yloxy)phenyl)urea]
COCCN(Cc1ccc(-c2cc3nccc(Oc4ccc(NC(=O)NC5CC5)cc4F)c3s2)nc1)C(=O)COC [Compound 85]
CCC(=O)N(CCOC)Cc1ccc(-c2cc3nccc(Oc4ccc(NC(=O)NC5CC5)cc4F)c3s2)nc1 [Compound 86, N-((6-(7-(4-(3-cyclopropylureido)-2-fluorophenoxy)thieno[3,2-b]pyridin-2-yl)pyridin-3-yl)methyl)-N-(2-methoxyethyl)propionamide]
COCCN(Cc1ccc(-c2cc3nccc(Oc4ccc(NC(=O)NC5CC5)cc4F)c3s2)nc1)C(=O)[C@@H](N)C(C)(C)C [Compound 88, (S)-2-amino-N-((6-(7-(4-(3-cyclopropylureido)-2-fluorophenoxy)thieno[3,2-b]pyridin-2-yl)pyridin-3-yl)methyl)-N-(2-methoxyethyl)-3,3-dimethylbutanamide]
